Test results taken from patent US8354400B2, “Benzoxazole compounds and methods of use” (Eisai R&D Co., Ltd., priority 2008, dated 2013).
Entries after “also recorded” stand apart in the source; their conditions may differ.

Columns and labels:
Assay type in all cases: in vivo
[1] = tested on: collagen induced arthritis in male DBA/1J mice; test: Type II collagen induced arthritis model; settings: 5 days per week from day 9
Method: The type II collagen induced arthritis model was used for the purpose of in vivo evaluation of Compound 2 for the treatment of arthritis. In this model, arthritis was induced in male DBA/1J (Jackson Labs) mice using complete Freund's adjuvant. A first priming/immunization dose of 300 μg of bovine type II collagen emulsified in an equal volume of complete Freund's adjuvant is injected subcutaneously (s.c.) at least 5 mm from the base of the tail.
Starting on day 9 after immunization and each day for 5 days per week thereafter, each mouse was dosed orally with 6 mg/kg, 20 mg/kg, or 60 mg/kg of Compound 2 or placebo 5 days per week.
A second immunization dose was administered 21 days after the first immunization by s.c. injection above the first immunization site of 200 μg of bovine type II collagen emulsified in an equal volume of incomplete Freund's adjuvant. To further promote arthritis progression, animals receive an intraperitoneal injection of lipopolysaccharide (LPS) (1 μg/mouse in PBS) three days after the second immunization.
At 21, 25, 28, and 31 days after the first immunization dose, the animals were examined for evidence of paw swelling and assigned an arthritis score at each time point.

[2] = tested on: MOGp35-55-induced EAE in C57BL/6J mice; test: Experimental autoimmune encephalitis (EAE) multiple sclerosis model
Method: Experimental autoimmune encephalitis (EAE) is an induced autoimmunity in mice that mimics human multiple sclerosis, including autoantibody and cellular responses targeted against central nervous system antigens. To induce EAE, groups of 8 male C57BL/6J mice (Jackson Laboratories) were immunized subcutaneously on day 0 with the synthetic peptide MOGp35-55 (Becher et al. J. Clin. Invest. 112:1186-1191 (2003)), with amino acid sequence […] (SEQ ID NO:4) at a dose of 200 μg/mouse in complete Freund's adjuvant (CFA). At the same time the animals received pertussis toxin, i.p. at 30 ng/mouse. On day 2 the pertussis injection was repeated. On day 7 the mice were boosted with MOGp35-55, 200 μg/mouse in incomplete Freund's. Beginning on day 9 the mice were dosed daily by oral gavage with Compound 23 in water at 20 mg/kg or 60 mg/kg. Symptoms were scored by observing degree and location of paralysis of the tail and limbs, the average score for each group of 8 mice is shown.

[3] = tested on: MRL/MpJ-faslpr/J mice (MRL/lpr); test: MRL/MpJ-faslpr/J spontaneous lupus model, Experiment 1
Method: In this experiment, MRL/MpJ-faslpr/J mice (“MRL/lpr”) obtained from Jackson Laboratories were dosed orally with Compound 23 at 20 or 60 mg/kg in water. MRL/lpr mice have a defect in lymphocyte death and spontaneously develop autoantibodies including the anti-nuclear antibodies found in human systemic lupus erythematosus (SLE). Dosing was performed daily five days a week beginning at 5 weeks of age. Blood and urine samples were taken prior to dosing on day one and every three to four weeks thereafter. An ELISA assay was used to measure serum anti-dsDNA before and after 7 weeks of dosing. The assay was conducted using a Mouse Anti-dsDNA Total Ig Qualitative ELISA kit (Alpha Diagnostic International, San Antonio. TX).
Anti-nuclear antibodies (“ANA”) in this experiment were also examined by exposing fixed […] cells, obtained as fixed samples on slides from Antibodies Inc., to diluted serum from the mice dosed with Compound 23 at 20 or 60 mg/kg, as described above, and staining for mouse immunoglobulin using the kit reagents supplied by Antibodies Inc. according to the kit instructions. Intensity of fluorescent staining was then read by microscope, and scores were assigned values between − and +++. Sample identifications were blinded for data collection.

MRL/lpr mice = test: MRL/lpr spontaneous lupus model, Experiment 2; settings: 12 weeks, high dose (60 mg/kg p.o.)
Method: In this SLE experiment, dosing, groups were as described in Table 4 below. Two dose levels of Compound 23 were compared to HCQ and cyclophosphamide (Cytoxan®). HCQ and cyclophosphamide are currently used in the treatment of cutaneous and systemic lupus, respectively. […] Sera were assayed at a 1:600 dilution in PBS. (Mouse Anti-dsDNA Total Ig Qualitative ELISA kits, Alpha Diagnostic International). Dosing was conducted by either oral (p.o.) or intraperitoneal (i.p.) administration.

Compound	paw swelling (arthritis score) ([1]; 60 mg/kg oral)	paw swelling (arthritis score) ([1]; 6 and 20 mg/kg oral)	MOG-induced EAE symptom score compared to control mice ([2]; 20 mg/kg oral gavage daily from day 9)	MOG-induced EAE symptom score ([2]; 60 mg/kg oral gavage daily from day 9)	serum anti-dsDNA, mean OD450 versus vehicle ([3]; MRL/lpr mice, 10 weeks of dosing)	serum anti-dsDNA versus vehicle ([3]; MRL/lpr mice, 12 weeks and beyond)	dosage-related toxicity (general appearance, body weight) ([3]; MRL/lpr mice, 20 or 60 mg/kg oral)	serum anti-dsDNA, mean OD450 versus vehicle ([3]; MRL/lpr mice, 20 or 60 mg/kg oral, 7 weeks of dosing)	anti-nuclear antibody (ANA) development ([3]; MRL/lpr mice, 20 or 60 mg/kg oral, 4, 10, 12 weeks of dosing)	anti-dsDNA in the MRL/lpr model of SLE (summary) ([3]; daily oral dosing with 60 and 20 mg/kg)	difference in mean dsDNA level between vehicle and compound (MRL/lpr mice)
CN(C)CCCOc1ccc(-c2nc3ccc(OCCCN(C)C)cc3o2)cc1 [Compound 2]	not clear	Suppression of paw swelling									
c1cc(-c2nc3ccc(OCCCN4CCCC4)cc3o2)ccc1OCCCN1CCCC1 [Compound 23]			suppressed significantly	suppressed further	statistical difference was still observed	more similar to vehicle-treated animals	No evidence of dosage-related toxicity	statistically significant suppression	dose-dependent suppression of ANA development; also recorded: dose-dependent inhibition	suppression of anti-dsDNA	statistically significant difference
